Columns and labels:
Assay type in all cases: cell-based, mouse
[1] = test system: NIH3T3 cells overexpressing Ki-ras; assay: MTT cell viability, Ki-ras overexpressing cells vs parental line; conditions: Ki-ras high-expressing cells / parental cell line, 3 to 4 days
How it was run: (§1)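 Stable NIH3T3 transfectants (cDNA in pRc-CMV-type vector, G-418-selected, high expressers picked by Western blot) and parental cells were seeded at 1×10^5 cells/ml into twofold serial drug dilutions and grown 3–4 days. MTT formazan was read at 574/655 nm, and log ratios of IC40 values were derived.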

[2] = test system: NIH3T3 cells overexpressing N-ras; assay: MTT cell viability, N-ras overexpressing cells vs parental line; conditions: N-ras high-expressing cells / parental cell line, 3 to 4 days
How it was run: as §1

[3] = test system: NIH3T3 cells overexpressing erbB2; assay: MTT cell viability, erbB2 overexpressing cells vs parental line; conditions: erbB2 high-expressing cells / parental cell line, 3 to 4 days
How it was run: as §1

[4] = test system: NIH3T3 cells overexpressing p53(wt); assay: MTT cell viability, p53(wt) overexpressing cells vs parental line; conditions: p53(wt) high-expressing cells / parental cell line, 3 to 4 days
How it was run: (§2)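 MTT viability of transfected versus parental NIH3T3 after 3–4 days in twofold drug dilution series; values are log ratios of IC40.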

[5] = test system: NIH3T3 cells overexpressing m-calpain; assay: MTT cell viability, m-calpain overexpressing cells vs parental line; conditions: m-calpain high-expressing cells / parental cell line, 3 to 4 days
How it was run: as §2

[6] = test system: NIH3T3 cells overexpressing cAMP-PK-CS; assay: MTT cell viability, cAMP-PK-CS overexpressing cells vs parental line; conditions: cAMP-PK-CS high-expressing cells / parental cell line, 3 to 4 days
How it was run: as §2

[7] = test system: NIH3T3 cells overexpressing calpastatin; assay: MTT cell viability, calpastatin overexpressing cells vs parental line; conditions: calpastatin high-expressing cells / parental cell line, 3 to 4 days
How it was run: as §1

[8] = test system: NIH3T3 cells overexpressing CP-antisense; assay: MTT cell viability, CP-antisense cells vs parental line; conditions: 3 to 4 days
How it was run: as §1

[9] = test system: NIH3T3 cells overexpressing cystatin alpha; assay: MTT cell viability, cystatin alpha overexpressing cells vs parental line; conditions: cystatin alpha high-expressing cells / parental cell line, 3 to 4 days
How it was run: as §1

[10] = test system: NIH3T3 cells overexpressing caspase-1; assay: MTT cell viability, caspase-1 overexpressing cells vs parental line; conditions: caspase-1 high-expressing cells / parental cell line, 3 to 4 days
How it was run: as §2

[11] = test system: NIH3T3 cells overexpressing caspase-2; assay: MTT cell viability, caspase-2 overexpressing cells vs parental line; conditions: caspase-2 high-expressing cells / parental cell line, 3 to 4 days
How it was run: as §1

[12] = test system: NIH3T3 cells overexpressing PDGF-R; assay: MTT cell viability, PDGF-R overexpressing cells vs parental line; conditions: PDGF-R high-expressing cells / parental cell line, 3 to 4 days
How it was run: as §1

[13] = test system: NIH3T3 cells overexpressing Gluco-corticoid-R; assay: MTT cell viability, Gluco-corticoid-R overexpressing cells vs parental line; conditions: Gluco-corticoid-R high-expressing cells / parental cell line, 3 to 4 days
How it was run: as §2

[14] = test system: NIH3T3 cells overexpressing STAT1; assay: MTT cell viability, STAT1 overexpressing cells vs parental line; conditions: STAT1 high-expressing cells / parental cell line, 3 to 4 days
How it was run: as §2

[15] = test system: NIH3T3 cells overexpressing CBP8; assay: MTT cell viability, CBP8 overexpressing cells vs parental line; conditions: CBP8 high-expressing cells / parental cell line, 3 to 4 days
How it was run: as §1

[16] = test system: NIH3T3 cells overexpressing JNK-DN; assay: MTT cell viability, JNK-DN overexpressing cells vs parental line; conditions: JNK-DN high-expressing cells / parental cell line, 3 to 4 days
How it was run: as §1

[17] = test system: NIH3T3 cells overexpressing HNF3b; assay: MTT cell viability, HNF3b overexpressing cells vs parental line; conditions: HNF3b high-expressing cells / parental cell line, 3 to 4 days
How it was run: as §2

[18] = test system: NIH3T3 cells overexpressing coup; assay: MTT cell viability, coup overexpressing cells vs parental line; conditions: coup high-expressing cells / parental cell line, 3 to 4 days
How it was run: as §1

[19] = test system: NIH3T3 cells overexpressing p33/ING1; assay: MTT cell viability, p33/ING1 overexpressing cells vs parental line; conditions: p33/ING1 high-expressing cells / parental cell line, 3 to 4 days
How it was run: as §1

[20] = test system: NIH3T3 cells overexpressing T.Tn; assay: MTT cell viability, T.Tn overexpressing cells vs parental line; conditions: T.Tn high-expressing cells / parental cell line, 3 to 4 days
How it was run: as §2

Compound | logarithmic value of ratio of IC40 values [1] | logarithmic value of ratio of IC40 values [2] | logarithmic value of ratio of IC40 values [3] | logarithmic value of ratio of IC40 values [4] | logarithmic value of ratio of IC40 values [5] | logarithmic value of ratio of IC40 values [6] | logarithmic value of ratio of IC40 values [7] | logarithmic value of ratio of IC40 values [8] | logarithmic value of ratio of IC40 values [9] | logarithmic value of ratio of IC40 values [10] | logarithmic value of ratio of IC40 values [11] | logarithmic value of ratio of IC40 values [12] | logarithmic value of ratio of IC40 values [13] | logarithmic value of ratio of IC40 values [14] | logarithmic value of ratio of IC40 values [15] | logarithmic value of ratio of IC40 values [16] | logarithmic value of ratio of IC40 values [17] | logarithmic value of ratio of IC40 values [18] | logarithmic value of ratio of IC40 values [19] | logarithmic value of ratio of IC40 values [20]
CCCC[C@@H](C)/C=C(C)/C=C(\C)C(=O)NC1=C[C@@](O)(/C=C/C=C/C=C/C(=O)NC2=C(O)CCC2=O)[C@@H]2O[C@@H]2C1=O [Manumycin, manumycin] | −0.24 | −0.09 | −0.05 | 0.12 | 0.05 | 0.08 | 0.02 | 0.00 | −0.19 | −0.06 | 0.08 | 0.17 | 0.09 | 0.00 | 0.09 | −0.05 | −0.06 | 0.09 | 0.18 | 0.28
C=C[C@@]1(C)CC(=O)[C@]2(O)[C@@]3(C)[C@@H](O)CCC(C)(C)[C@@H]3[C@H](O)[C@H](OC(C)=O)[C@@]2(C)O1 [Forskolin, forskolin] | 0.36 | 0.54 | 0.28 | 0.98 | 0.25 | 0.51 | −0.09 | −0.05 | 0.72 | 0.34 | −0.34 | 0.16 | 0.33 | 0.51 | 0.40 | −0.22 | 0.00 | 0.78 | 0.63 | 0.53
COc1ccc2c(c1)CC[C@@H]1[C@@H]2CC[C@]2(C)[C@@H](NCCCCCCN3C(=O)C=CC3=O)CC[C@@H]12 [U73122] | −0.60 | −0.54 | −0.96 | 0.11 | −0.14 | −0.18 | −0.313 | −0.10 | 0.04 | 0.53 | −0.02 | −0.11 | 0.05 | 0.18 | 0.18 | −0.07 | −0.31 | 0.00 | 0.28 | −0.26
CNc1ccc2oc(C[C@H]3O[C@@]4(CC[C@H]3C)O[C@H]([C@H](C)C(=O)c3ccc[nH]3)[C@H](C)C[C@H]4C)nc2c1C(=O)O [A23187] | 0.06 | 0.20 | −0.07 | 0.30 | 0.26 | −0.08 | −0.12 | −0.36 | 0.26 | −0.22 | 0.48 | 0.31 | 0.28 | 0.31 | 0.22 | −0.08 | −0.16 | −0.12 | 0.26 | −0.22
ICE inhibitor-III [ICEin-3] | 0.30 | 0.38 | 0.18 | 0.23 | −0.06 | 0.00 | −0.088 | −0.19 | 0.32 | 0.11 | 0.04 | 0.20 | 0.00 | 0.09 | 0.18 | 0.00 | −0.09 | −0.11 | −0.15 | 0.30
CO[C@H]1[C@@H](OC)C[C@H](C)[C@@H](OC)C2=CC(=O)C=C(NC(=O)/C(C)=C/C=C\[C@H](OC)[C@@H](OC(N)=O)/C(C)=C/[C@@H]1C)C2=O [HMA, herbimycin A] | −0.14 | 0.43 | −0.55 | −0.22 | 0.00 | 0.12 | −0.14 | −0.10 | −0.12 | 0.00 | 0.10 | 0.19 | −0.11 | −0.05 | 0.09 | −0.14 | −0.18 | 0.42 | 0.38 | 0.00
C=C1[C@@H](O)[C@@H]2O[C@]3(CC[C@H](/C=C/[C@@H](C)[C@@H]4CC(C)=C[C@@]5(O[C@H](C[C@@](C)(O)C(=O)O)CC[C@H]5O)O4)O3)CC[C@H]2O[C@@H]1[C@@H](O)C[C@H](C)[C@H]1O[C@@]2(CCCCO2)CC[C@H]1C [OA, okadaic acid] | 0.04 | 0.00 | −0.19 | −0.05 | −0.08 | 0.08 | −0.04 | 0.13 | 0.08 | 0.00 | 0.06 | 0.16 | 0.06 | 0.14 | 0.12 | −0.07 | 0.08 | 0.00 | 0.11 | −0.16

Source: patent US20040086901A1, “Database for analyzing gene function and method of analyzing gene function by dspa” (priority 2000, published 2004)
